Several values for one entry are separate records, joined by “and”; a condition that tells them apart may be missing. Identical values can stand only once.
tested on: S. Typhimurium GFP reporter counter-screen, fluorescence, 4 h; assay: S. Typhimurium nonspecific reporter signal inhibition – Salmonella Typhimurium, GFP fluorescence, counter-screen for PhoP regulon inhibitor project, dose response (AID 2401);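 note: S. typhimurium with Mg-insensitive nmpC-GFP reporter grown at 10 µM Mg2+; drop in reporter fluorescence reflects general culture growth inhibition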

| SMILES | IC50 |
| --- | --- |
| O=c1c2c(-c3ccccc3)csc2nc2c3ccccc3c(NCCN3CCOCC3)nn12 | 147 µM |
| CCCCCCOC(=O)C[N+](C)(C)CCOC1CC2CCC1(C)C2(C)C (stereo not drawn) | 31.9 µM |
| Cc1nc(N)c(Cc2ccc(Cl)cc2Cl)c(N)n1 | 40.6 µM |
| CNc1cc(Cl)c2nonc2c1[N+](=O)[O-] | 37.7 µM |
| Oc1c(Cl)cc(Cl)c2cccnc12 | 10.5 µM |
| O=C(C[n+]1cc(-c2ccc(Cl)c(Cl)c2)n2c1CCC2)N1c2ccccc2Sc2ccccc21 | 49 µM |
| CC(C)C(=O)NC(c1cccc([N+](=O)[O-])c1)c1ccc2cccnc2c1O (stereo not drawn) | 51.7 µM |
| CCCCOc1ccc(Cc2cnc(N)nc2N)cc1 | 38.2 µM |
| Oc1c(CN2CCN(c3ccc(F)cc3)CC2)cc(Cl)c2cccnc12 | 19.8 µM |
| COc1cccc(Nc2nc(NCC3CCCO3)c3ccccc3n2)c1 (stereo not drawn) | 87.5 µM |
| c1ccc(C2CNCc3c2ccc2ccccc32)cc1 (stereo not drawn) | 138 µM |
| O=C(Nc1ccccc1)Nc1ccc(Cl)c([N+](=O)[O-])c1 | 42.4 µM |
| N=C(N)SCc1cn(-c2ccccc2)nc1-c1ccc(Br)cc1 | 20.3 µM |
| Oc1ccc(Cl)cc1Cc1cc(Cl)ccc1O | 38.6 µM |
| CC(=O)NC(c1ccc2ccccc2c1)c1ccc2cccnc2c1O (stereo not drawn) | 100 µM |
| CCCCCCCCNC(C)C(O)c1ccc(SC(C)C)cc1 (stereo not drawn) | 75.3 µM |
| O=CN/N=C/c1c(O)ccc2ccccc12 | 37.2 µM |
| Nc1nc(F)nc2c1ncn2[C@@H]1O[C@H](CO)[C@@H](O)[C@H]1O | 32.8 µM |
| O=[N+]([O-])c1ccc(N/N=C/c2ccc[nH]2)cc1 | 62 µM |
| COc1ccc(Nc2cc(C)c3c(O)cccc3n2)cc1 | 47.2 µM |
| CN1CCN(C(c2ccccn2)c2cc(Cl)c3cccnc3c2O)CC1 (stereo not drawn) | 43.9 µM |
| CNC[C@H](CC1CCCCC1)NC[C@H](Cc1ccccc1)NCCC12CC3CC(CC(C3)C1)C2 | 16.1 µM |

| SMILES | IC50 |
| --- | --- |
| O=S1(=O)CCC(NC(=S)SCCOc2ccccc2)C1 (stereo not drawn) | 64.8 µM |
| O=[N+]([O-])c1ccc(-c2ccn[nH]2)o1 | 39.8 µM |
| CC1CCC(C(C)C)C(OC(=O)Cn2c(-c3ccc(Cl)cc3)[n+](C)c3ccccc32)C1 (stereo not drawn) | 82.9 µM |
| CCn1cc(C(=O)O)c(=O)c2cc(F)c(N3CCN(C(=S)NC(=O)c4ccc(OC)cc4)CC3)cc21 | 29.4 µM |
| O=C1C(SCCO)=C(SCCO)C(=O)c2ccccc21 | 68 µM |
| OC(c1cc(C(F)(F)F)nc2c(Cl)cc(Cl)cc12)C1CCCCN1 (stereo not drawn) | 80.5 µM |
| O=C(O)CCN1C(=O)CC(N2C(=O)/C(=C/c3ccc(Cl)cc3)SC2=S)C1=O (stereo not drawn) | 20.6 µM |
| Cc1ccc(-c2csc(N=C(N)N)n2)cc1 | 109 µM |
| CCn1cc(C(=O)O)c(=O)c2cc(F)c(N3CCN(C(=S)NC(=O)c4cccc(C)c4)CC3)cc21 | 34.7 µM |
| CCCCCCCOC(=O)C[N+](C)(C)CCOC1CC2CCC1(C)C2(C)C (stereo not drawn) | 20.1 µM |
| Nc1ccc2c(c1)C(=O)C(=O)c1ccccc1-2 | 11 µM |
| CN(C)C1C(=O)C(C(N)=O)=C(O)C2(O)C(=O)C3=C(O)c4c(O)cccc4C(C)(O)C3CC12 (stereo not drawn) | 1.01 µM |
| CN(O)/C=c1/ccc2c(n1)C(=O)C=CC=2 | 35 µM |
| C1=C(CCNCc2ccccc2)CCCC1 | 7.93 µM |
| Nc1c(Cl)ncnc1N/N=C/c1ccccn1 | 25.5 µM |
| CCn1cc(C(=O)NCCO)c(=O)c2cc(F)c(N3CCN(C)CC3)cc21 | 42.8 µM |
| Cc1cc(C)c2ccc(N)nc2c1O | 35.7 µM |
| C#CCOCCOCCOCCNc1nc(N2CCN(C(=O)CCCCCCCCCCNC(=O)[C@H](CCCCN)n3cc(C[C@@H](C)CC)nn3)CC2)nc(N2CCN(C(=O)CCCCCCCCCCNC(=O)[C@H](CCCN=C(N)N)n3cc(C[C@@H](C)CC)nn3)CC2)n1 | 78 µM |
| O=[N+]([O-])c1cc(Cl)c2cccnc2c1O | 1.62 µM |
| O=C(O)c1cc(O)c2c(c1)[C@@H]([C@H]1c3cc(C(=O)O)cc(O)c3C(=O)c3c(O[C@@H]4O[C@H](CO)[C@@H](O)[C@H](O)[C@H]4O)cccc31)c1cccc(OC3O[C@H](CO)[C@@H](O)[C@H](O)[C@H]3O)c1C2=O (stereo partly drawn) | 83.6 µM |
| c1cnc2c(c1)ccc1cccnc12 | 24.5 µM |
| CCCc1nnc(NC(=O)c2cn(CC)c3cc(N4CCN(C)CC4)c(F)cc3c2=O)s1 | 117 µM |

| SMILES | IC50 |
| --- | --- |
| CO[C@H]1/C=C/O[C@@]2(C)Oc3c(C)c(O)c4c(O)c(c(C=NN5CCN(C)CC5)c(O)c4c3C2=O)NC(=O)/C(C)=C\C=C\[C@H](C)[C@H](O)[C@@H](C)[C@@H](O)[C@@H](C)[C@H](OC(C)=O)[C@@H]1C | 6.41 µM |
| Fc1ccccc1CCNCc1ccccc1 | 36.2 µM |
| O=[N+]([O-])c1ccc(Sc2nc3ccccc3o2)c([N+](=O)[O-])c1 | 103 µM |
| CN(Cc1ccccc1)CC(O)COc1ccc(CNCc2ccc(Cl)s2)cc1 (stereo not drawn) | 91.9 µM |
| CC(C(=O)c1ccc(-c2ccccc2)cc1)[n+]1cccc(NC(=O)c2ccccc2)c1 (stereo not drawn) | 76.6 µM |
| COC(=O)c1c(NC(=O)c2ccc([N+](=O)[O-])o2)sc2c1CCN(C(C)C)C2 | 69.3 µM |
| Cc1ccccc1Nc1cc(C)c2c(O)cccc2n1 | 41.2 µM |
| CN(C)c1ccc(O)c2c1CC1CC3[C@@H](N(C)C)C(=O)C(C(N)=O)=C(O)[C@]3(O)C(=O)C1=C2O (stereo partly drawn) | 4.76 µM |
| CC(=O)NC(c1cccs1)c1cc([N+](=O)[O-])c2cccnc2c1O (stereo not drawn) | 30.8 µM |
| Cc1cc(C(=O)N/N=C/c2ccc([N+](=O)[O-])s2)n[nH]1 | 35 µM |
| Cc1cccc(Nc2c3c(nc4ccccc24)CCC3)c1 | 109 µM |
| COc1ccc(C(=O)Cn2nc(CNc3ccc(Br)cc3)[n+]3c2CCCCC3)cc1 | 80.8 µM |
| CCn1cc(C(=O)O)c(=O)c2cnc(N3CCNCC3)nc21 | 68.4 µM |
| Cc1ccc(C(c2cc(Cl)c3cccnc3c2O)N2CCN(C)CC2)cc1 (stereo not drawn) | 33.5 µM |
| O=c1[nH][nH]c(-c2ccccc2O)c1C(C[N+](=O)[O-])c1cccc(Cl)c1 (stereo not drawn) | 69.8 µM |
| NC1=NC[C@H](Cc2ccccc2)N1CCCCC1CCCCC1 | 45.9 µM |
| COC12C(COC(N)=O)C3=C(C(=O)C(C)=C(N)C3=O)N1CC1C2N1C (stereo not drawn) | 77.2 µM |
| Clc1ccc(OCCCNCc2ccccc2)c(Br)c1 | 46.4 µM |
| O=C1OCC(CO)(CO)N=C1NNc1ccc(Cl)c(Cl)c1 | 109 µM |
| CCOC(=O)N1CCN(C(=O)c2cn(CC)c3cc(N4CCN(C)CC4)c(F)cc3c2=O)CC1 | 12 µM |
| CCOC(=O)c1ccc(-c2ccc(C3Nc4ccccc4C(=O)N3O)o2)cc1 (stereo not drawn) | 142 µM |
| Cc1scc(C(=O)N/N=C/c2ccc([N+](=O)[O-])o2)c1C | 114 µM |

| SMILES | IC50 |
| --- | --- |
| CCCCCCCCCCCCCCCCn1cc[n+](CC(C)=O)c1 | 33.9 µM |
| CCCCCCCSc1cc(OC)c(CCN(C)C)cc1OC | 57.2 µM |
| O=[N+]([O-])/C=C/c1cc2ccccc2[nH]1 | 138 µM |
| CCCCCCCCCCCCCCCCn1cc[n+](C)c1 | 16.3 µM |
| Cc1ccc(NC(=O)NCC2CCN(Cc3cccc(Cl)c3)CC2)cc1Cl | 70.2 µM |
| O=C(N/N=C/c1ccc(Sc2ccccn2)o1)c1cc2ccccc2cc1O | 107 µM |
| O=C1c2ccccc2NC(c2ccc(-c3cccc(Cl)c3)o2)N1O (stereo not drawn) | 52.2 µM |
| Cc1c2ccncc2c(C)c2c1[nH]c1ccccc12 | 19.6 µM |
| O=[N+]([O-])c1ccc(O)c2ncccc12 | 2.37 µM |
| CN(C)c1ccc(O)c2c1CC1CC3C(N(C)C)C(=O)C(C(N)=O)=C(O)[C@@]3(O)C(=O)C1=C2O (stereo partly drawn) | 3.97 µM |
| O=C1OC(/C(=C\Nc2ccc(F)cc2F)[N+](=O)[O-])c2ccccc21 (stereo not drawn) | 61.1 µM |
| CCCCN(CCCC)C(=O)c1cn(CC)c2cc(N3CCN(C)CC3)c(F)cc2c1=O | 21.9 µM |
| C#CCOCCOCCOCCNc1nc(N2CCN(C(=O)CCCCCCCCCCNC(=O)[C@H](CCCN=C(N)N)n3cc(C[C@@H](C)CC)nn3)CC2)nc(N2CCN(C(=O)CCCCCCCCCCNC(=O)[C@@H]([C@H](C)CC)n3cc(CCCCCN)nn3)CC2)n1 | 74.9 µM |
| Oc1c(C(Nc2nc3ccccc3s2)c2ccco2)ccc2cccnc12 (stereo not drawn) | 104 µM |
| CCn1cc(C(=O)NCCCN(C)C)c(=O)c2cc(F)c(N3CCN(C)CC3)cc21 | 86.9 µM |
| O=C(O)Cc1sc(Nc2ccc(Cl)cc2)nc1-c1cccs1 | 147 µM |
| CCn1cc(C(=O)O)c(=O)c2cc(F)c(N3CCN(C(=S)NC(=O)c4c(OC)cccc4OC)CC3)cc21 | 54.2 µM |
| O=C(NC(CO)C(O)c1ccc([N+](=O)[O-])cc1)C(Cl)Cl (stereo not drawn) | 10.1 µM |
| C[C@H]1COc2c(N3CCN(C)CC3)c(F)cc3c(=O)c(C(=O)O)cn1c23 | 0.37 µM |
| Cc1cccc(Nc2nc(NCc3ccco3)c3ccccc3n2)c1 | 54.6 µM |
| Cc1ccc(S(=O)(=O)NC2=NCN(CCOC(=O)c3ccc([N+](=O)[O-])cc3)CN2)cc1 | 145 µM |
| O=C(NC(=S)NNC(=O)c1ccccc1O)c1ccco1 | 41.5 µM |

| SMILES | IC50 |
| --- | --- |
| Oc1ccc(/C=N/Nc2ncc(Br)cn2)c(O)c1 | 71.1 µM |
| Nc1[nH]c(=O)ncc1F | 92.7 µM |
| O=[N+]([O-])c1ccc(O)c(/C=N/Nc2ccccn2)c1 | 13.9 µM |
| CCn1cc(C(=O)O)c(=O)c2cc(F)c(N3CCN(C)CC3)cc21 | 2.15 µM |
| CCN1/C(=C/C(C)=C/c2sc3ccccc3[n+]2CC)Sc2ccccc21 | 12.9 µM |
| Cc1ccc(S(=O)(=O)/N=C2/C=C(Sc3ncn[nH]3)C(=O)c3ccccc32)cc1 | 32.6 µM |
| Cc1cc(/C=N/n2c(COc3ccccc3C)nc3ccccc3c2=O)c(O)c([N+](=O)[O-])c1 | 70.4 µM |
| COc1ccc(-c2ccc3c(N)c(C(=O)c4cccc(OC)c4)sc3n2)cc1 | 83.2 µM |
| CC1CCc2c(N3CCC(O)CC3)c(F)cc3c(=O)c(C(=O)O)cn1c23 (stereo not drawn) | 15.3 µM |
| CCn1cc(C(=O)O)c(=O)c2cc(F)c(N3CCN(C(=S)Nc4ccc(OC)cc4)CC3)cc21 | 15.3 µM |
| COc1cc(/C=C/[N+](=O)[O-])ccc1O | 32.6 µM |
| C[C@H]1c2cccc(O)c2C(O)=C2C(=O)[C@]3(O)C(O)=C(C(N)=O)C(=O)[C@@H](N(C)C)C3[C@@H](O)C21 (stereo partly drawn) | 2.3 µM |
| NC1=NC[C@H](Cc2ccc(O)cc2)N1CCCCC1CCCCC1 | 51 µM |
| O=C(N/N=C/c1coc2ccc(Cl)cc2c1=O)c1cc(O)cc(O)c1 | 88 µM |
| CCN1/C(=C/C=C/c2sc3ccccc3[n+]2CC)Sc2ccccc21 | 32.9 µM |
| CCCCCCCCCCCCCCCC[N+](C)(C)CC | 25.4 µM |
| NC(=NCCCCCCN=C(N)/N=C(\N)Nc1ccc(Cl)cc1)/N=C(\N)Nc1ccc(Cl)cc1 | 5.5 µM and 9.19 µM and 14.6 µM |
| O=C(Nc1cccc(N=Cc2cc(Br)cc(Br)c2O)c1)c1ccco1 | 104 µM |
| Cc1[nH]n(-c2ccccc2)c(=O)c1/C=N/Nc1nncc(-c2ccccc2)n1 | 19.1 µM |
| O=C(Oc1c(CN2CCOCC2)cc(Cl)c2cccnc12)c1ccc(F)cc1 | 136 µM |
